In PubChem BioAssay (NCI):
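Briefly, cells in 96-well plates were exposed to five compound concentrations for 48 h, and endpoints were estimated by linear interpolation. TGI denotes the concentration required for complete inhibition of growth.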

Experiments:
Assay in all cases: growth of human tumour cells (NCI), 48 h
[1] = system: MALME-3M melanoma
[2] = system: OVCAR-8 ovarian
[3] = system: HOP-92 NSCLC
[4] = system: OVCAR-3 ovarian
[5] = system: SF-539 CNS
[6] = system: SK-MEL-5 melanoma
[7] = system: SF-268 CNS
[8] = system: MDA-N
[9] = system: SK-MEL-28 melanoma
[10] = system: NCI-H522 lung
[11] = system: HCC-2998 colon
[12] = system: NCI-H226 lung
[13] = system: NCI/ADR-RES ovarian
[14] = system: MDA-MB-231 breast
[15] = system: OVCAR-5 ovarian

| SMILES | TGI [1] | TGI [2] | TGI [3] | TGI [4] | TGI [5] | TGI [6] | TGI [7] | TGI [8] | TGI [9] | TGI [10] | TGI [11] | TGI [12] | TGI [13] | TGI [14] | TGI [15] |
| --- | --- | --- | --- | --- | --- | --- | --- | --- | --- | --- | --- | --- | --- | --- | --- |
| Cc1[nH]c(=O)nc2nc3cc(Cl)cc(Cl)c3c(NC(C)(CO)CO)c12 | > 100 µM | > 100 µM | 57.7 µM | > 100 µM | > 100 µM | > 100 µM | > 100 µM | > 100 µM | > 100 µM | > 100 µM | > 100 µM | > 100 µM | > 100 µM | 36.9 µM | – |
| Cc1ccc(CC(Cc2ccccc2C)C(=O)O)c(C(=O)O)c1 (centres undefined) | > 100 µM | > 100 µM | > 100 µM | > 100 µM | > 100 µM | > 100 µM | > 100 µM | > 100 µM | > 100 µM | > 100 µM | > 100 µM | > 100 µM | > 100 µM | > 100 µM | > 100 µM |
| Cc1cc(S(=O)(=O)NC2=NCc3nc4ccccc4n32)c(S)cc1Cl | 56.2 µM | > 100 µM | 47.2 µM | 40.3 µM | 42.7 µM | 32.1 µM | > 100 µM | 58.1 µM | > 100 µM | > 100 µM | 35.7 µM | 40.9 µM | 54.6 µM | 55.9 µM | 65.1 µM |
| CCOC1CN=C(Nc2cccc3ccccc23)S1 (centres undefined) | > 10 µM | > 10 µM | > 10 µM | > 10 µM | > 10 µM | > 10 µM | > 10 µM | > 10 µM | > 10 µM | > 10 µM | > 10 µM | > 10 µM | > 10 µM | > 10 µM | > 10 µM |
| CCOC(=O)C(C(=O)OCC)=C1SC(=Nc2ccccc2)C(=Nc2ccccc2)N1c1ccccc1 | > 100 µM | > 100 µM | > 100 µM | > 100 µM | > 100 µM | > 100 µM | > 100 µM | > 100 µM | > 100 µM | > 100 µM | > 100 µM | > 100 µM | > 100 µM | > 100 µM | > 100 µM |
| CC[C@]12C=CCN3CC[C@@]4(c5cc(N=O)c(OC)cc5N(C)[C@H]4[C@@](O)(C(=O)OC)[C@@H]1OC(C)=O)[C@@H]32 | > 100 µM | > 100 µM | > 100 µM | > 100 µM | 66.5 µM | > 100 µM | > 100 µM | 48.5 µM | > 100 µM | 36.5 µM | > 100 µM | > 100 µM | > 100 µM | > 100 µM | > 100 µM |
| Cc1cc(S(=O)(=O)Nc2n[nH]c(-c3ccc(Cl)cc3)n2)c(SSc2cc(Cl)c(C)cc2S(=O)(=O)Nc2n[nH]c(-c3ccc(Cl)cc3)n2)cc1Cl | > 100 µM | > 100 µM | 76.8 µM | 85.1 µM | > 100 µM | 86.8 µM | > 100 µM | > 100 µM | 96.4 µM | 83.9 µM | 40.7 µM | 73.3 µM | > 100 µM | > 100 µM | 86.9 µM |
| Cc1ccc(C)n1-c1ccccc1C1C=Cn2c(=O)nnc3c(OC(C)C)c(OC(C)C)c(O)c1c32 (centres undefined) | 76.5 µM | > 100 µM | > 100 µM | > 100 µM | > 100 µM | > 100 µM | > 100 µM | > 100 µM | 38.1 µM | 49.6 µM | > 100 µM | 53.6 µM | > 100 µM | > 100 µM | > 100 µM |
| COc1ccc2c(c1)Cc1c(NCCN(C)C)ccc(C(=O)NCCCN(C)CCCNC(=O)c3ccc(NCCN(C)C)c4c3Nc3ccc(OC)cc3C4)c1N2 | 0.209 µM | 2.86 µM | 2.79 µM | 1.21 µM | 2.24 µM | 1.72 µM | 0.327 µM | 0.224 µM | 1.46 µM | 0.0514 µM | 0.168 µM | 0.241 µM | > 100 µM | 0.419 µM | 0.631 µM |
| CNC(=O)C(C)NC(=O)C(Cc1ccccc1)NC(=O)c1ccccc1 (centres undefined) | > 100 µM | > 100 µM | > 100 µM | > 100 µM | > 100 µM | > 100 µM | > 100 µM | > 100 µM | > 100 µM | > 100 µM | > 100 µM | > 100 µM | > 100 µM | > 100 µM | > 100 µM |
